Results: publication PMC5089669, “Biocatalytic Properties and Structural Analysis of Eugenol Oxidase from Rhodococcus jostii RHA1: A Versatile Oxidative Biocatalyst” (Chembiochem, 2016)

Experiments:
Eugenol oxidase (EUGO) [1] = molecular target: T1, Eugenol oxidase (EUGO) (Rhodococcus jostii, UniProt Q0SBK1); assay: crystal structure; assay type: binding; conditions: covalent; His390 to C8M of flavin
T1 construct: gene RHA1_ro03282; homodimer
T1 sequence (Q0SBK1 1-526): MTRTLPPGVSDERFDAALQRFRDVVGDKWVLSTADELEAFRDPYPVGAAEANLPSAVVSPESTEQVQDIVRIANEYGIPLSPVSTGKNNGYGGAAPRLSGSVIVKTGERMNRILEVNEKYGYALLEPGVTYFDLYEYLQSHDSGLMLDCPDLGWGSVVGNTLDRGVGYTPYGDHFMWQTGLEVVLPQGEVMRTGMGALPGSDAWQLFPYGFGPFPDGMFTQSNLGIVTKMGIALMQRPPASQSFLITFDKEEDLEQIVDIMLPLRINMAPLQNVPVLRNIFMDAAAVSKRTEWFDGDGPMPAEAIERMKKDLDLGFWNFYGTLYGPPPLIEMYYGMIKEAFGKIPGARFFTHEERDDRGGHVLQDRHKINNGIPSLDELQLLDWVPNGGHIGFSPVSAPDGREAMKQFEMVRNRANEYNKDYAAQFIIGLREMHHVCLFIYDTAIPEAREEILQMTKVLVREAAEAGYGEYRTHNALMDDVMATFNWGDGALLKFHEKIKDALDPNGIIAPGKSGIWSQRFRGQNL

Eugenol oxidase (EUGO) [2] = molecular target: T1, Eugenol oxidase (EUGO); assay: crystal structure of unsoaked native crystals; assay type: binding; conditions: weak inhibitor; density tentatively assigned, co-purified; active site Tyr-Tyr-Arg

| Compound | crystal structure (Eugenol oxidase (EUGO) [1]) | crystal structure of unsoaked native crystals (Eugenol oxidase (EUGO) [2]) |
| --- | --- | --- |
| Cc1cc2nc3c(=O)[nH]c(=O)nc-3n(C[C@H](O)[C@H](O)[C@H](O)COP(=O)(O)OP(=O)(O)OC[C@H]3O[C@@H](n4cnc5c(N)ncnc54)[C@H](O)[C@@H]3O)c2cc1C [FAD] | covalent bond between His390 (equivalent to His422 of VAO) and the C8M atom | – |
| O=C(O)c1ccccc1 [benzoate] | – | we found benzoate to be a weak EUGO inhibitor |
